In patent publication US20220388962A1 (Biohaven Therapeutics Ltd., priority 2019, published 2022):

How the values were obtained:
[1] = molecular target: T1, TDP-43 (Homo sapiens, UniProt Q13148); conditions: using bt-(TG)6, not bt-TAR32; cited from earlier work
[2] = molecular target: T1, TDP-43; conditions: previously reported; cited from earlier work
[3] = molecular target: T1, TDP-43; assay: TDP-43-DNA alpha-screen assay (bt-TAR-32 displacement); type: binding; conditions: bt-TAR-32 0.125 nM, 15 ng/ml TDP-43
Outline: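 GST-TDP-43 (15 ng/ml final) on anti-GST acceptor beads pre-incubated 30 min at 23 °C with compound (50 to 0.02 μM, half-log) in 25 mM Tris pH 7.4, 0.1% BSA, 0.1% Triton X-100. Biotinylated TAR-32 DNA (0.125 nM final) on streptavidin donor beads added, 90 min at 23 °C dark; AlphaScreen signal fitted for IC50.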

T1 sequence (Q13148 whole entry): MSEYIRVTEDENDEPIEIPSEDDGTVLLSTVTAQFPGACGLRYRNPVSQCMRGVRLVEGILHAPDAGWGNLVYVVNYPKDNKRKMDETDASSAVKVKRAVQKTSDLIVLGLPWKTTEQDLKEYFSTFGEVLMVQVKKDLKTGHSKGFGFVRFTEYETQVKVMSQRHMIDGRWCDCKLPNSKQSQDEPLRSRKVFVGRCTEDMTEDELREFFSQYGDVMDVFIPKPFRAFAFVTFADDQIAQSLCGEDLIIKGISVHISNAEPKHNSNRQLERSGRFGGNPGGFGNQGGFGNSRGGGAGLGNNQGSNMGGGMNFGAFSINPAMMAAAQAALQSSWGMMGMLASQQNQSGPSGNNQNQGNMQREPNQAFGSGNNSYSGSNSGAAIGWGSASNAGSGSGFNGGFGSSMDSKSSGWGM

SMILES | IC50 [3] | also measured
COc1ccc(-c2cc(NCCCN(C)C)c3ccccc3n2)cc1 [(XXVIII)] |  | activity in TDP-43 alpha-screen [1]: active; caspase-7 cleavage of TDP-43 [2]: promoted caspase-7 cleavage of TDP-43
CN(C)CCCNc1cc(-c2ccc(N3CCNCC3)cc2)nc2ccccc12 [Example 99, N^1,N^1-dimethyl-N3-(2-(4-(piperazin-1-yl)phenyl)quinolin-4-yl)propane-1,3-diamine] | 150 nM | 
NCCCNc1cc(-c2cnn(CCN3CCCC3)c2)nc2ccccc12 [Example 100] | 160 nM | 
COc1ccc(-c2cc(NC3CCN(C4CCC(N)CC4)CC3)c3ccccc3n2)cc1 (stereo not shown) [Example 102] | 180 nM | 
CN(C)CCCNc1cc(-c2ccc(N3CCNCC3)cc2)nc2ccc(F)cc12 [Example 103, N-(3-(dimethylamino)propyl)-6-fluoro-2-(4-(piperazin-1-yl)phenyl)quinolin-4-amine] | 220 nM | 
CC(C)C(N)C(=O)NC(C(=O)NC(C(=O)N1CCN(c2ccc(-c3cc(NCCCN(C)C)c4ccccc4n3)cc2)CC1)C(C)C)C(C)C (stereo not shown) [Example 106] | 240 nM | 
CN(C)CCCNc1cc(-c2cnn(C3CCN(C)CC3)c2)nc2ccccc12 [Example 107] | 260 nM | 
CN(C)CCCNc1cc(-c2ccc(N3CCN(C)CC3)cc2)nc2ccccc12 [Example 110] | 310 nM | 
CC(C)C(N)C(=O)NC(C(=O)N1CCN(c2ccc(-c3cc(NCCCN(C)C)c4ccccc4n3)cc2)CC1)C(C)C (stereo not shown) [Example 111] | 420 nM | 
COc1ccc(-c2cc(N[C@H]3C[C@@H](N)C3)c3ccccc3n2)cc1 [Example 112] | 490 nM | 
CN(C)CCCNc1cc(-c2ccc(N3CCN(C)C(=O)C3)cc2)nc2ccccc12 [Example 114] | 600 nM | 
CN(C)CCCNc1cc(-c2ccc3ncccc3c2)nc2ccccc12 [Example 118] | 800 nM | 
NCCCNc1cc(C2=CCNCC2)nc2ccccc12 [Example 120] | 870 nM | 
COc1ccc(-c2cc(NC3CCNCC3)c3ccccc3n2)cc1 [Example 122] | 1170 nM | 
CN(C)CCCNc1cc(-c2ccc3occc3c2)nc2ccccc12 [Example 124] | 1280 nM | 
CN(C)CCCNc1cc(-c2cnn(C3CC3)c2)nc2ccccc12 [Example 127] | 1510 nM | 
NCCCNc1cc(C2=CCCCC2)nc2ccccc12 [Example 128] | 1570 nM | 
NCCCNc1cc(-c2ccco2)nc2ccccc12 [Example 131] | 2550 nM | 
NCCCNc1cc(-c2cnn(CCN3CCOCC3)c2)nc2ccccc12 [Example 134] | 2940 nM | 
COc1ncc(-c2cc(NCCCN(C)C)c3ccccc3n2)cn1 [Example 136] | 38500 nM | 
Cc1cc(NCCCN(C)C)c2ccccc2n1 [Example 137] | 45600 nM | 
COc1ccc(-c2cc(NC3CCC(F)(F)CC3)c3ccccc3n2)cc1 [Example 141] | 64500 nM | 
COc1ccc2nc(C(F)(F)F)cc(NCCCN(C)C)c2c1 [Example 143] | 79400 nM | 
COc1cc2c(NCCCN(C)C)ccnc2cc1OCCCN1CCCC1 [Example 144] | 10 nM | 

The next lines start with results.

IC50 [3] | SMILES | also measured
170 nM | COc1ccc(-c2cc(N[C@H]3CC[C@H](N)CC3)c3cc(OC)c(OC)cc3n2)cc1 [Example 101] | 
220 nM | COc1ccc(-c2cc(NC3CCN(CCCN)CC3)c3ccccc3n2)cc1 [Example 104] | 
230 nM | COc1ccc(-c2cc(N[C@H]3CC[C@@H](N)CC3)c3cc(OC)c(OC)cc3n2)cc1 [Example 105] | 
270 nM | COc1ccc(-c2cc(NCCCN(C)C)c3cc(OC)c(OC)cc3n2)cc1 [Example 108] | 
290 nM | COc1ccc(-c2cc(NCCCN)c3cc(OC)c(OC)cc3n2)cc1 [Example 109] | 
570 nM | NCCCNc1cc(-c2ccc3ncccc3c2)nc2ccccc12 [Example 113] | 
640 nM | NCCCNc1cc(-c2ccc3c(c2)CCO3)nc2ccccc12 [Example 116] | 
760 nM | [2H]C([2H])([2H])Oc1ccc(-c2cc(NCCCN)c3ccccc3n2)cc1 [Example 117] | 
1210 nM | [2H]C([2H])([2H])Oc1ccc(-c2cc(NCCCN(C)C)c3ccccc3n2)cc1 [Example 123] | 
1300 nM | Cn1cc(-c2cc(NCCCN)c3ccccc3n2)cn1 [Example 125] | 
1660 nM | COc1ccc(-c2cc(NCCCN(C)C(=O)[C@H](C)N)c3ccccc3n2)cc1 [Example 129] | 
1780 nM | [2H]C([2H])([2H])N(CCCNc1cc(-c2ccc(OC)cc2)nc2ccccc12)C([2H])([2H])[2H] [Example 130] | 
2720 nM | COc1ccc(-c2cc(NCCCN(C)C)c3ccccc3n2)cc1 [Example 132] | 
2900 nM | COc1ccc(-c2cc(NCCCN(C)C)c3c(F)cccc3n2)cc1 [Example 133] | 
31700 nM | COc1ccc(-c2cc(NCCCO)c3ccccc3n2)cc1 [Example 135] | 
52600 nM | COc1ccc(-c2cc(NCCC(=O)N(C)C)c3ccccc3n2)cc1 [Example 138] | 
6510 nM | COc1ccc(-c2cc(NCCCN(C)C)c3ccccc3n2)cn1 [Example 139] | 
6560 nM | COc1ccc(-c2cc(NCCCN(C)C)c3cc4c(cc3n2)OC(F)(F)O4)cc1 [Example 140] | 
65300 nM | COc1ccc(-c2cc(NCCC(=O)OC(C)(C)C)c3ccccc3n2)cc1 [Example 142] | 
410 nM | COc1cc2nccc(NCCCN(C)CCCN)c2cc1OC [Example 146] | 
840 nM | COc1cc2nccc(NCCCN(C)CCCN)c2cc1OC [Example 147, N^1-(3-aminopropyl)-N^3-(6,7-dimethoxyquinolin-4-yl)-N^1-methylpropane-1,3-diamine] | 
